Source: patent US7375058B2, “Herbicidal mixtures based on 3-phenyluracils” (priority 2002, dated 2008)
Where a name gives a salt, the structure may show the parent alone.

Experiments:
[1] = tested on: GALAP; assay: Greenhouse post-emergence herbicidal action against GALAP; assay type: in vivo, Galium aparine; details: 21 days
Source text: (§1) For the post-emergence treatment, the test plants were first grown to a height of 3 to 20 cm, depending on the plant habit, and only then treated. Here, the herbicidal compositions were suspended or emulsified in water as distribution medium and sprayed using finely distributing nozzles
(§2) The respective components A and B and/or C were formulated as 10% by weight strength emulsion concentrate and introduced to the spray liquor with the amount of solvent system used for applying the active compound. In the examples, the solvent used was water.
(§3) The test period extended over 21 days. During this time, the plants were tended, and their response to the treatments with active compound was evaluated.
(§4) The evaluation for the damage caused by the chemical compositions was carried out using a scale from 0 to 100%, compared to the untreated control plants. Here, 0 means no damage and 100 means complete destruction of the plants.
(§5) In the examples below, the value E which is to be expected if the activity of the individual compounds is just additive was calculated using the method of S. R. Colby (1967) “Calculating synergistic and antagonistic responses of herbicide combinations”, Weeds 15, p. 22 ff. E=X+Y−([…]) where • X=effect in percent using active compound A at an application rate a; • Y=effect in percent using active compound B at an application rate b; • E=expected effect (in %) of A+B at application rates a+b.
(§6) If the observed effect is higher than the value E calculated according to Colby, a synergistic effect is present.

[2] = tested on: ABUTH; assay: Greenhouse post-emergence herbicidal action against ABUTH; assay type: in vivo, Abutilon theophrasti
Source text: as §1, §2, §3, §4, §5, §6

[3] = tested on: BIDPI; assay: Greenhouse post-emergence herbicidal action against BIDPI; assay type: in vivo, Bidens pilosa
Source text: as §1, §2, §3, §4, §5, §6

[4] = tested on: AVEFA; assay: Greenhouse post-emergence herbicidal action against AVEFA; assay type: in vivo, Avena fatua
Source text: as §1, §2, §3, §4, §5, §6

[5] = tested on: POLPE; assay: Greenhouse post-emergence herbicidal action against POLPE; assay type: in vivo, Polygonum persicaria; details: 21 days
Source text: as §1, §2, §3, §4, §5, §6

[6] = tested on: BRAPL; assay: Greenhouse post-emergence herbicidal action against BRAPL; assay type: in vivo, Brachiaria plantaginea
Source text: as §1, §2, §3, §4, §5, §6

[7] = tested on: ECHCG; assay: Greenhouse post-emergence herbicidal action against ECHCG; assay type: in vivo, Echinochloa crus-galli; details: 21 days
Source text: as §1, §2, §3, §4, §5, §6

[8] = I.1 1.95 g/ha and/or b10.1 125 g/ha
[9] = I.1 3.91 g/ha and/or b10.1 250 g/ha
[10] = I.14 0.49 g/ha and/or b13.3 62.5 g/ha
[11] = I.14 0.98 g/ha and/or b13.3 125 g/ha

## CCO/N=C(\CC)C1=C(O)CC(c2c(C)cc(C)cc2C)CC1=O (stereo not shown) [b1.1, tralkoxydim, reference compound]
[1]; application rate g/ha: I.1 1.95, b1.1 62.5
  Herbicidal action against GALAP found: 0%
[1]; application rate g/ha: I.1 3.91, b1.1 125
  Herbicidal action against GALAP found: 0%

## CCCC(=NOCC(C)Oc1ccc(Cl)cc1)C1=C(O)CC(C2CCCSC2)CC1=O (stereo not shown) [b1.2, profoxydim, reference compound]
[2]; 21 days, application rate g/ha: I.1 1.95, b1.2 31.25
  Herbicidal action against ABUTH found: 30%
[2]; 21 days, application rate g/ha: I.1 3.91, b1.2 62.5
  Herbicidal action against ABUTH found: 40%

## CCc1cnc(C2=NC(C)(C(C)C)C(=O)N2)c(C(=O)O)c1 (stereo not shown) [b2.2, imazethapyr, reference compound]
[3]; 21 days, application rate g/ha: I.8 0.49, b2.2 7.81
  Herbicidal action against BIDPI found: 20%
[3]; 21 days, application rate g/ha: I.8 0.98, b2.2 15.63
  Herbicidal action against BIDPI found: 20%

## CCNc1nc(Cl)nc(NC(C)C)n1 [b3.1, atrazine, reference compound]
[4]; 21 days, application rate g/ha: I.7 1.95, b3.1 62.5
  Herbicidal action against AVEFA found: 0%
[4]; 21 days, application rate g/ha: I.7 3.91, b3.1 125
  Herbicidal action against AVEFA found: 0%
[5]; application rate g/ha: I.7 1.95, b3.1 62.5
  Herbicidal action against POLPE found: 50%
[5]; application rate g/ha: I.7 3.91, b3.1 125
  Herbicidal action against POLPE found: 60%

## CC(C)c1ccc(NC(=O)N(C)C)cc1 [b3.3, isoproturon, reference compound]
[2]; 21 days, application rate g/ha: I.7 0.98, b3.3 31.25
  Herbicidal action against ABUTH found: 0%
[2]; 21 days, application rate g/ha: I.7 1.95, b3.3 62.5
  Herbicidal action against ABUTH found: 40%

## C[n+]1ccc(-c2cc[n+](C)cc2)cc1 [b3.4, paraquat, reference compound]
[2]; 21 days, application rate g/ha: I.7 0.98, b3.4 31.25
  Herbicidal action against ABUTH found: 0%
[2]; 21 days, application rate g/ha: I.7 1.95, b3.4 62.5
  Herbicidal action against ABUTH found: 40%

## CCOC(=O)/C(Cl)=C/c1cc(N2C(=O)C3=C(CCCC3)C2=O)ccc1Cl [b4.1, cinidon-ethyl, reference compound]
[5]; application rate g/ha: I.1 0.49, b4.1 0.98
  Herbicidal action against POLPE found: 40%
[5]; application rate g/ha: I.1 0.98, b4.1 1.95
  Herbicidal action against POLPE found: 50%

## O=C(Nc1ccc(F)cc1)c1cccc(Oc2cccc(C(F)(F)F)c2)n1 [b5.1, picolinafen, reference compound]
[5]; application rate g/ha: I.8 0.98, b5.1 7.81
  Herbicidal action against POLPE found: 30%
[5]; application rate g/ha: I.8 1.95, b5.1 15.63
  Herbicidal action against POLPE found: 40%
[6]; 21 days, application rate g/ha: I.8 0.98, b5.1 7.81
  Herbicidal action against BRAPL found: 20%
[6]; 21 days, application rate g/ha: I.8 1.95, b5.1 15.63
  Herbicidal action against BRAPL found: 20%

## CS(=O)(=O)c1ccc(C(=O)C2C(=O)CCCC2=O)c(Cl)c1 [b5.2, sulcotrione, reference compound]
[7]; application rate g/ha: I.8 1.95, b5.2 31.25
  Herbicidal action against ECHCG found: 60%
[7]; application rate g/ha: I.8 3.91, b5.2 62.5
  Herbicidal action against ECHCG found: 75%

## CC(C)N.O=C(O)CNCP(=O)(O)O [b6.1, glyphosate isopropylammonium salt, reference compound]
[4]; 21 days, application rate g/ha: I.7 1.95, b6.1 125
  Herbicidal action against AVEFA found: 0%
[4]; 21 days, application rate g/ha: I.7 3.91, b6.1 250
  Herbicidal action against AVEFA found: 0%

## CP(=O)(O)CCC(N)C(=O)O (stereo not shown) [b7.1, glufosinate ammonium salt, reference compound]
[4]; 21 days, application rate g/ha: I.7 1.95, b7.1 250
  Herbicidal action against AVEFA found: 0%
[4]; 21 days, application rate g/ha: I.7 3.91, b7.1 500
  Herbicidal action against AVEFA found: 20%
[5]; application rate g/ha: I.7 1.95, b7.1 250
  Herbicidal action against POLPE found: 0%
[5]; application rate g/ha: I.7 3.91, b7.1 500
  Herbicidal action against POLPE found: 30%

## CCC(CC)Nc1c([N+](=O)[O-])cc(C)c(C)c1[N+](=O)[O-] [b9.1, pendimethalin, reference compound]
[4]; 21 days, application rate g/ha: I.1 0.98, b9.1 125
  Herbicidal action against AVEFA found: 10%
[4]; 21 days, application rate g/ha: I.1 1.95, b9.1 250
  Herbicidal action against AVEFA found: 20%

## COC[C@H](C)N(C(=O)CCl)c1c(C)csc1C [b10.1, dimethenamid-P, reference compound]
[3]; [8]
  Herbicidal action against BIDPI found: 25%
[3]; [9]
  Herbicidal action against BIDPI found: 25%
[4]; [8]
  Herbicidal action against AVEFA found: 30%
[4]; [9]
  Herbicidal action against AVEFA found: 30%

## CCOCN(C(=O)CCl)c1c(C)cccc1CC [b10.2, acetochlor, reference compound]
[3]; 21 days, application rate g/ha: I.14 1.95, b10.2 250
  Herbicidal action against BIDPI found: 30%
[3]; 21 days, application rate g/ha: I.14 3.91, b10.2 500
  Herbicidal action against BIDPI found: 70%

## CNC.O=C(O)COc1ccc(Cl)cc1Cl [b13.3, 2,4-D dimethylammonium salt, reference compound]
[6]; [10]
  Herbicidal action against BRAPL found: 20%
[6]; [11]
  Herbicidal action against BRAPL found: 50%
[2]; [10]
  Herbicidal action against ABUTH found: 25%
[2]; [11]
  Herbicidal action against ABUTH found: 65%
